Experimental data taken from PubChem BioAssay (NCI).
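96-well plates; 48 h exposure; 5 concentrations. Endpoints by linear interpolation between flanking doses. Not reached: highest tested concentration assigned. TGI denotes the concentration required for complete inhibition of growth.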

Experiments:
Experiment in all cases: NCI tumour cell line growth inhibition, 48 h
DLD-1 colon = test system: DLD-1 colon
DMS 273 small cell lung = test system: DMS 273 small cell lung
KM20L2 colon = test system: KM20L2 colon
SNB-78 CNS = test system: SNB-78 CNS
M19-MEL melanoma = test system: M19-MEL melanoma
HOP-18 NSCLC = test system: HOP-18 NSCLC
P388 leukemia = test system: P388 leukemia
P388/ADR leukemia = test system: P388/ADR leukemia
SN12K1 renal = test system: SN12K1 renal

CO/C(=N\N=C\c1ccc(Cl)cc1)c1ccncc1
TGI (DLD-1 colon): > 100 µM | TGI (DMS 273 small cell lung): > 100 µM | TGI (KM20L2 colon): > 100 µM | TGI (SNB-78 CNS): > 100 µM

COC(=O)C1=C(C)N2CCCOC2(C)C(C(=O)OC)C1c1cccc(Cl)c1 (stereo unspecified)
TGI (KM20L2 colon): 64.4 µM | TGI (M19-MEL melanoma): 54.3 µM

CN(C)N=Nc1ccc([N+](=O)[O-])cc1C(N)=O
TGI (DLD-1 colon): > 100 µM | TGI (DMS 273 small cell lung): > 100 µM | TGI (HOP-18 NSCLC): > 100 µM | TGI (KM20L2 colon): > 100 µM | TGI (M19-MEL melanoma): > 100 µM | TGI (P388 leukemia): > 100 µM | TGI (P388/ADR leukemia): > 100 µM | TGI (SN12K1 renal): > 100 µM | TGI (SNB-78 CNS): > 100 µM

C=Nc1ccc([N+](=O)[O-])cc1
TGI (DLD-1 colon): > 100 µM | TGI (DMS 273 small cell lung): > 100 µM | TGI (HOP-18 NSCLC): > 92.9 µM | TGI (KM20L2 colon): > 100 µM | TGI (M19-MEL melanoma): > 100 µM | TGI (SNB-78 CNS): > 100 µM
